pEC50: −log10 of the molar value. The source made the active and inactive calls. The rule behind the calls is not given here.
Experiments:
Murid betaherpesvirus 1 = experiment: Antiviral activity against Murine cytomegalovirus infected in severe combined immunodeficient mouse assessed as reduction in viral load; format: functional
Human betaherpesvirus 5 [1] = experiment: Antiviral activity against Human cytomegalovirus infected in severe combined immunodeficient mouse with human fetal tissue implanted assessed as reduction in viral replication; format: functional, organism-based
Human betaherpesvirus 5 [2] = experiment: Antiviral activity against Human cytomegalovirus; format: functional, organism-based

Structure (SMILES) | fold change (FC) (Murid betaherpesvirus 1) | Activity (Human betaherpesvirus 5 [1]) | pEC50 (Human betaherpesvirus 5 [2])
Nc1nc2c(ncn2/C=C2/CC2(CO)CO)c(=O)[nH]1 [FILOCICLOVIR] | 2 | Active | 
Nc1nc2c(ncn2COC(CO)CO)c(=O)[nH]1 [GANCICLOVIR] |  |  | 5.39

— ChEMBL document CHEMBL1275262, “Stereoselective phosphorylation of cyclopropavir by pUL97 and competitive inhibition by maribavir” (Antimicrob Agents Chemother, 2010)
